Test results reported in PubChem BioAssay AID2060494 (Molecular Pharmacology Branch, DTP, NCI, 2025).

Test system: 435261-313-R-J1-PDC complex spheroid viability
Assay: Anticancer human tumor 435261-313-R-J1-PDC patient-derived colon adenocarcinoma cell line growth inhibition [GQUAD]
Conditions: for IC50: curve of first compound; for viability, T/C: stronger effect = lower value
From the text: DNA G-quadruplex Stabilizer Agents in Combinations in Complex Spheroids
A high-throughput screen of multi-cell type tumor spheroids was designed to identify active combinations of DNA G-quadruplex stabilizer agents and targeted small molecules. Complex spheroids include a stromal component modeled by human endothelial cells (HUVEC) and fibroblasts modeled by human mesenchymal stem cells (MSCs). The concentration ranges selected for each drug and investigational agent were based upon clinically achievable concentrations if the clinical Cmax of the agent was known.
Compounds. The drugs and investigational agents: pidnarulex (CX-5461; NSC782164), APTO-253 (NSC789042), BRACO-19 (NSC847499), peposertib (NSC802822), ceralasertib (NSC780249), elimusertib (NSC800525), camonsertib (NSC841442), AZD-1390 (NSC803789), olaparib (NSC753686), talazoparib (NSC767125), ART-558 (NSC835418), sotorasib (NSC818433), MRTX-1133 (NSC836407), SN-38 (NSC673596), topotecan (NSC609699), etoposide (NSC141540), doxorubicin (NSC123127), gemcitabine (NSC613327), 5-fluorouracil (NSC19893), paclitaxel (NSC125973), vemurafenib (NSC761431), panobinostat (NSC761190), R-306465 (JNJ-16241199; NSC773264), adavosertib (NSC754352), TP-3654 (NSC805149), carboplatin (NSC241240), KSQ-4279 (NSC840948), and staurosporine (NSC755774) were obtained from the National Cancer Institute (NCI) Developmental Therapeutics Program Chemical Repository (34). The FDA-approved anticancer drug set is available from the NCI Developmental Therapeutics Program. […] The stock solutions were prepared in dimethyl sulfoxide (DMSO, Sigma-Aldrich, St. Louis, MO, cat. D2650) at 800-fold the tested concentration and stored at -70 degrees C prior to their use. All drugs and investigational agents were tested over a range starting from a high concentration at or near the clinical Cmax and decreasing in half-log increments. If the clinical Cmax for an agent had not been determined, the highest concentration tested was 10 microM.
2.3 Cell Culture. All cells were maintained in an incubator at 37 degrees C and 5% CO2 with 95% humidity. The PDC lines were cultured according to standard operating procedures established by the NCI PDMR. All PDCs were thawed and cultured in Matrigel-coated flasks prepared with a working solution of 1X Ham's F-12 nutrient mix, without supplementation (Invitrogen, cat. 11765054), 100 U/mL penicillin-streptomycin (Invitrogen, cat. 15140122), and 2.5% Matrigel (Corning Inc., cat. 354248) for the first three passages. The 857933-349-R-J2-PDC line was cultured in 6C/Colon 1B media, which includes advanced DMEM/F-12 (Thermo Fisher Scientific, cat. 12634028), 10 mM HEPES (Thermo Fisher Scientific, cat. 15630080), 1X GlutaMAX supplement (Thermo Fisher Scientific, cat. 35050061), 0.1 mg/mL primocin (InvivoGen, cat. ant-pm-2), 10% defined fetal bovine serum, heat inactivated (HyClone Laboratories Inc., cat. SH30070.03HI), 50% L-WRN conditioned media (ATCC, cat. CRL-3276), 1.25 mM N-Acetyl-L-cysteine (Sigma-Aldrich, cat. A9165), 10 mM nicotinamide (Sigma-Aldrich, cat. N0636), 1X B-27 supplement (Thermo Fisher Scientific, cat. 17504044), 1X N-2 supplement (Thermo Fisher Scientific, cat. 17502048), 10 microM Y-27632 dihydrochloride (Tocris Bioscience, cat. 1254), and 50 ng/mL human EGF recombinant protein (Thermo Fisher Scientific, cat. PHG0311). The 485176-168-R4-J1-PDC line was cultured in Panc media, which includes all 6C/Colon 1B media components plus 100 ng/mL human FGF-10 (Thermo Fisher Scientific, cat. 100-26), 500 nM SB-431542 (Selleckchem, cat. S1067), and gastrin (Tocris, cat. 3006).
[…]

[1] = second compound 0.0316 µM, first compound 0.0316 µM
[2] = second compound 0.0316 µM, first compound 0.316 µM
[3] = second compound 0.1 µM, first compound 0.0316 µM
[4] = second compound 0.1 µM, first compound 0.316 µM
[5] = second compound 0.316 µM, first compound 0.0316 µM
[6] = second compound 0.316 µM, first compound 0.316 µM
[7] = second compound 1 µM, first compound 0.0316 µM
[8] = second compound 1 µM, first compound 0.316 µM
[9] = second compound 3.16 µM, first compound 0.0316 µM
[10] = second compound 3.16 µM, first compound 0.316 µM
[11] = second compound 10 µM, first compound 0.0316 µM
[12] = second compound 10 µM, first compound 0.316 µM
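Note: spheroids exposed to the agents for seven days before readout.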
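Throughout, for viability, T/C: percent of vehicle control viability with DMSO wells as 100%.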

C=CCn1c(=O)c2cnc(Nc3ccc(N4CCN(C)CC4)cc3)nc2n1-c1cccc(C(C)(C)O)n1 + CN(C)c1ccc(Nc2c3ccc(NC(=O)CCN4CCCC4)cc3nc3cc(NC(=O)CCN4CCCC4)ccc23)cc1
IC50 (second compound 0.0316 µM): > 10000 nM
IC50 (second compound 0.1 µM): > 10000 nM
IC50 (second compound 0.316 µM): 7580 nM
IC50 (second compound 1 µM): > 10000 nM
IC50 (second compound 3.16 µM): > 10000 nM
IC50 (second compound 10 µM): 353 nM
viability, T/C [1]: 128%
viability, T/C (second compound 0.0316 µM, first compound 0.1 µM): 145%
viability, T/C [2]: 84.1%
viability, T/C (second compound 0.0316 µM, first compound 1 µM): 103%
viability, T/C (second compound 0.0316 µM, first compound 3.16 µM): 81.8%
viability, T/C (second compound 0.0316 µM, first compound 10 µM): 65.2%
viability, T/C [3]: 96.4%
viability, T/C (second compound 0.1 µM, first compound 0.1 µM): 89.1%
viability, T/C [4]: 87.9%
viability, T/C (second compound 0.1 µM, first compound 1 µM): 69.7%
viability, T/C (second compound 0.1 µM, first compound 3.16 µM): 91.7%
viability, T/C (second compound 0.1 µM, first compound 10 µM): 73%
viability, T/C [5]: 92.7%
viability, T/C (second compound 0.316 µM, first compound 0.1 µM): 81.5%
viability, T/C [6]: 86.6%
viability, T/C (second compound 0.316 µM, first compound 1 µM): 78.1%
viability, T/C (second compound 0.316 µM, first compound 3.16 µM): 64%
viability, T/C (second compound 0.316 µM, first compound 10 µM): 45.5%
viability, T/C [7]: 80.8%
viability, T/C (second compound 1 µM, first compound 0.1 µM): 98.7%
viability, T/C [8]: 66.6%
viability, T/C (second compound 1 µM, first compound 1 µM): 90.4%
viability, T/C (second compound 1 µM, first compound 3.16 µM): 75.8%
viability, T/C (second compound 1 µM, first compound 10 µM): 54.6%
viability, T/C [9]: 50.9%
viability, T/C (second compound 3.16 µM, first compound 0.1 µM): 48.2%
viability, T/C [10]: 63.4%
viability, T/C (second compound 3.16 µM, first compound 1 µM): 70.1%
viability, T/C (second compound 3.16 µM, first compound 3.16 µM): 57.8%
viability, T/C (second compound 3.16 µM, first compound 10 µM): 34%
viability, T/C [11]: 32.7%
viability, T/C (second compound 10 µM, first compound 0.1 µM): 90.5%
viability, T/C [12]: 44.8%
viability, T/C (second compound 10 µM, first compound 1 µM): 31.8%
viability, T/C (second compound 10 µM, first compound 3.16 µM): 23.9%
viability, T/C (second compound 10 µM, first compound 10 µM): 9.35%

Cc1[nH]c2ccccc2c1CCNCc1ccc(/C=C/C(=O)NO)cc1 + CN(C)c1ccc(Nc2c3ccc(NC(=O)CCN4CCCC4)cc3nc3cc(NC(=O)CCN4CCCC4)ccc23)cc1
IC50 (second compound 0.0316 µM): 80.3 nM
IC50 (second compound 0.1 µM): 55.8 nM
IC50 (second compound 0.316 µM): 74.7 nM
IC50 (second compound 1 µM): 61.4 nM
IC50 (second compound 3.16 µM): 25.5 nM
IC50 (second compound 10 µM): < 0.999 nM
viability, T/C (second compound 0.0316 µM, first compound 0.000999 µM): 84.5%
viability, T/C (second compound 0.0316 µM, first compound 0.00316 µM): 86%
viability, T/C (second compound 0.0316 µM, first compound 0.00999 µM): 95%
viability, T/C [1]: 69.2%
viability, T/C (second compound 0.0316 µM, first compound 0.0999 µM): 45.9%
viability, T/C [2]: 9.48%
viability, T/C (second compound 0.1 µM, first compound 0.000999 µM): 134%
viability, T/C (second compound 0.1 µM, first compound 0.00316 µM): 96.6%
viability, T/C (second compound 0.1 µM, first compound 0.00999 µM): 79.4%
viability, T/C [3]: 59.7%
viability, T/C (second compound 0.1 µM, first compound 0.0999 µM): 50.8%
viability, T/C [4]: 11%
viability, T/C (second compound 0.316 µM, first compound 0.000999 µM): 104%
viability, T/C (second compound 0.316 µM, first compound 0.00316 µM): 99.5%
viability, T/C (second compound 0.316 µM, first compound 0.00999 µM): 91.4%
viability, T/C [5]: 69.4%
viability, T/C (second compound 0.316 µM, first compound 0.0999 µM): 43.8%
viability, T/C [6]: 9.1%
viability, T/C (second compound 1 µM, first compound 0.000999 µM): 76.7%
viability, T/C (second compound 1 µM, first compound 0.00316 µM): 74.3%
viability, T/C (second compound 1 µM, first compound 0.00999 µM): 58.5%
viability, T/C [7]: 62.1%
viability, T/C (second compound 1 µM, first compound 0.0999 µM): 45.5%
viability, T/C [8]: 10.1%
viability, T/C (second compound 3.16 µM, first compound 0.000999 µM): 119%
viability, T/C (second compound 3.16 µM, first compound 0.00316 µM): 79.2%
viability, T/C (second compound 3.16 µM, first compound 0.00999 µM): 62.7%
viability, T/C [9]: 56.2%
viability, T/C (second compound 3.16 µM, first compound 0.0999 µM): 28.5%
viability, T/C [10]: 6.97%
viability, T/C (second compound 10 µM, first compound 0.000999 µM): 44.3%
viability, T/C (second compound 10 µM, first compound 0.00316 µM): 49.4%
viability, T/C (second compound 10 µM, first compound 0.00999 µM): 23.3%
viability, T/C [11]: 18.3%
viability, T/C (second compound 10 µM, first compound 0.0999 µM): 22.6%
viability, T/C [12]: 4.75%
